The results in this text go back to patent US20240148821A1, “PHARMACEUTICAL USE OF CYCLIC PEPTIDE COMPOUND” (CHUGAI SEIYAKU KABUSHIKI KAISHA, priority 2021, published 2024).

Numbered stars: 1 amine (or outer) side, 2 acyl side, 3 side chain; on linkers, the order of the positions; unused ones are H or OH. Bridge positions count the residues as written; N and C are the ends. Square brackets hold non-standard residues; d marks the D form. Peptide text beside a SMILES is read from it. * marks the point of attachment. hPhe(3-Cl-4-CF3) = N[C@@H](CCc1ccc(C(F)(F)F)c(Cl)c1)C(=O)O; NMePhe(4-Me) = CN[C@@H](Cc1ccc(C)cc1)C(=O)O; NMedβ3hAla = C[C@H](CC(=O)[*:2])N(C)[*:1]; NMeNva(5,5-F2) = CN[C@@H](CCC(F)F)C(=O)O; NMeGly(cPent) = CN[C@H](C(=O)O)C1CCCC1; NMe3Pal = CN[C@@H](Cc1cccnc1)C(=O)O; NMeCha = CN[C@@H](CC1CCCCC1)C(=O)O; NMeChg = CN[C@H](C(=O)O)C1CCCCC1; NMeF = CN[C@@H](Cc1ccccc1)C(=O)O; NMeI = CC[C@H](C)[C@H](NC)C(=O)O; NMeD = CN[C@@H](CC(=O)O)C(=O)O; NMeL = CN[C@@H](CC(C)C)C(=O)O; Cba = N[C@@H](CC1CCC1)C(=O)O; NMeNle = CCCC[C@H](NC)C(=O)O; NMeV = CN[C@H](C(=O)O)C(C)C; d(β3hA) = C[C@@H](N)CC(=O)O; NMeS = CN[C@@H](CO)C(=O)O; Morpholide = C1CN(*)CCO1; NMeA = CN[C@@H](C)C(=O)O; Piperidide = C1CCN(*)CC1; Pyrrolidide = C1CCN(*)C1; dNMeA = CN[C@H](C)C(=O)O; Ac5c = NC1(C(=O)O)CCCC1; Aze = O=C(O)[C@@H]1CCN1; Abu = CC[C@H](N)C(=O)O; Sar = CNCC(=O)O; Propyl = CCC*

The assay has as its system Human pancreatic cancer cell line AsPC-1 (G12D mutation Kras). As to the kind of experiment: AsPC-1 cell growth inhibition (AsPC-1 CGI). The following applies: read-out: AsPC-1 cell growth inhibition, 50% growth inhibitory concentration (IC50 value); 96 hours, CellTiter-Glo, values classified in ranges. Type of assay: cell-based. (In general: Cellular ATP, detected with luciferase, serves as a proxy for viable cell number.)
Description: Test compounds were serially dilated with dimethyl sulfoxide, and 200 nL was then dispensed to a U-bottom 96-well plate using Labcyte Echo. […] The cell suspension was dispensed to a. plate containing a test compound at 100 μL per well and incubated at 37° C. in a 5% carbon dioxide gas incubator. 96 hours later, 80 μL of CellTiter-Glo (Promega) was added to each well and fluorescence was measured.
Regarding `CC[C@H](C)[C@@H]1NC(=O)[C@H](CC(C)C)N(C)C(=O)C[C@@H](C(=O)N(C)C)N(C)C(=O)[C@H](C2CCCC2)N(C)C(=O)C2(CCCC2)NC(=O)[C@@H]2CCCN2C(=O)[C@H](CCc2ccc(C(F)(F)F)c(Cl)c2)NC(=O)CN(C)C(=O)[C@H](Cc2ccc(C)cc2)N(C)C(=O)[C@@H]2CCN2C(=O)[C@H](C)N(C)C1=O` [Compound 1756] ([NMeL]I[NMeA][Aze][NMePhe(4-Me)][Sar][hPhe(3-Cl-4-CF3)]P[Ac5c][NMeGly(cPent)][NMeD]-NMe2; lactam N-11), the IC50 is at most 20 nM.
For `CC(C)C[C@H]1C(=O)N[C@@H](CC2CCC2)C(=O)N(C)CC(=O)N(C)CC(=O)N(C)[C@@H](CC2CCCCC2)C(=O)N(C)CC(=O)N[C@@H](CCc2ccc(C(F)(F)F)c(Cl)c2)C(=O)N2CCC[C@H]2C(=O)NC2(CCCC2)C(=O)N(C)[C@@H](C2CCCCC2)C(=O)N(C)[C@H](C(=O)N2CCCCC2)CC(=O)N1C` [Compound 1759] ([NMeL][Cba][Sar][Sar][NMeCha][Sar][hPhe(3-Cl-4-CF3)]P[Ac5c][NMeChg][NMeD]-Piperidide; lactam N-11), the IC50 was above 500 nM.
On to `CC(C)C[C@H]1C(=O)N[C@@H](CO)C(=O)N(C)[C@@H](C)C(=O)N2CC[C@H]2C(=O)N(C)[C@@H](CC2CCCCC2)C(=O)N(C)CC(=O)N[C@@H](CCc2ccc(C(F)(F)F)c(Cl)c2)C(=O)N2CCC[C@H]2C(=O)NC2(CCCC2)C(=O)N(C)[C@@H](C(C)C)C(=O)N(C)[C@H](C(=O)N2CCCCC2)CC(=O)N1C` [Compound 1768] ([NMeL]S[NMeA][Aze][NMeCha][Sar][hPhe(3-Cl-4-CF3)]P[Ac5c][NMeV][NMeD]-Piperidide; lactam N-11), for which the IC50 is above 500 nM.
As for `CCCOC[C@H]1C(=O)N(C)[C@H](C(=O)N2CCCCC2)CC(=O)N(C)[C@@H](CC(C)C)C(=O)N[C@@H]([C@@H](C)CC)C(=O)N(C)CC(=O)N(C)CC(=O)N(C)[C@@H](CC2CCCCC2)C(=O)N(C)CC(=O)N[C@@H](CCc2ccc(C(F)(F)F)c(Cl)c2)C(=O)N2CCC[C@H]2C(=O)NC2(CCCC2)C(=O)N1C` [Compound 1771] ([NMeL]I[Sar][Sar][NMeCha][Sar][hPhe(3-Cl-4-CF3)]P[Ac5c][NMeS](Propyl)[NMeD]-Piperidide; lactam N-11), the figure is above 500 nM; as for `CC[C@@H]1NC(=O)[C@H](CC(C)C)N(C)C(=O)C[C@@H](C(=O)N2CCCCC2)N(C)C(=O)[C@H](C2CCCCC2)N(C)C(=O)C2(CCCC2)NC(=O)[C@@H]2CCCN2C(=O)[C@H](CCc2ccc(C(F)(F)F)c(Cl)c2)NC(=O)CN(C)C(=O)[C@H](CC2CCCCC2)N(C)C(=O)CN(C)C(=O)CN(C)C1=O` [Compound 1775] ([NMeL][Abu][Sar][Sar][NMeCha][Sar][hPhe(3-Cl-4-CF3)]P[Ac5c][NMeChg][NMeD]-Piperidide; lactam N-11), above 500 nM.
Take `CC[C@H](C)[C@@H]1NC(=O)[C@H](C)N(C)C(=O)C[C@@H](C)NC(=O)[C@H](C(C)C)N(C)C(=O)C2(CCCC2)NC(=O)[C@@H]2CCCN2C(=O)[C@H](CCc2ccc(C(F)(F)F)c(Cl)c2)NC(=O)CN(C)C(=O)[C@H](Cc2ccccc2)N(C)C(=O)[C@@H]2CCCN2C(=O)CN(C)C1=O` [Compound 1778] (cyclo([Ac5c][NMeV][d(β3hA)][NMeA]I[Sar]P[NMeF][Sar][hPhe(3-Cl-4-CF3)]P)): the IC50 was above 500 nM.
For the compound `CC[C@H](C)[C@@H]1NC(=O)[C@H](CC(C)C)N(C)C(=O)C[C@@H](C(=O)N(C)C)N(C)C(=O)[C@H](C2CCCC2)N(C)C(=O)C2(CCCC2)NC(=O)[C@@H]2CCCN2C(=O)[C@H](CCc2ccc(C(F)(F)F)c(Cl)c2)NC(=O)CN(C)C(=O)[C@H](Cc2ccc(C)cc2)N(C)C(=O)CN(C)C(=O)CN(C)C1=O` [Compound 1779] ([NMeL]I[Sar][Sar][NMePhe(4-Me)][Sar][hPhe(3-Cl-4-CF3)]P[Ac5c][NMeGly(cPent)][NMeD]-NMe2; lactam N-11), the IC50 is at most 20 nM.
Regarding `CC[C@H](C)[C@@H]1NC(=O)[C@H](CC(C)C)N(C)C(=O)C[C@@H](C(=O)N2CCCCC2)N(C)C(=O)[C@H](CCC(F)F)N(C)C(=O)C2(CCCC2)NC(=O)[C@@H]2CCCN2C(=O)[C@H](CCc2ccc(C(F)(F)F)c(Cl)c2)NC(=O)CN(C)C(=O)[C@H](CC2CCCCC2)N(C)C(=O)CN(C)C(=O)CN(C)C1=O` [Compound 1782] ([NMeL]I[Sar][Sar][NMeCha][Sar][hPhe(3-Cl-4-CF3)]P[Ac5c][NMeNva(5,5-F2)][NMeD]-Piperidide; lactam N-11), the IC50 is above 500 nM.
In the case of `CC[C@H](C)[C@@H]1NC(=O)[C@H](C)N(C)C(=O)C[C@@H](C(=O)N2CCOCC2)N(C)C(=O)[C@H](C(C)C)N(C)C(=O)C2(CCCC2)NC(=O)[C@@H]2CCCN2C(=O)[C@H](CCc2ccc(C(F)(F)F)c(Cl)c2)NC(=O)[C@@H](C)N(C)C(=O)[C@H](CC2CCCCC2)N(C)C(=O)[C@@H]2CCCN2C(=O)CN(C)C1=O` [Compound 1788] ([NMeA]I[Sar]P[NMeCha][dNMeA][hPhe(3-Cl-4-CF3)]P[Ac5c][NMeV][NMeD]-Morpholide; lactam N-11), the IC50 was above 500 nM.
Take `CC[C@H](C)[C@@H]1NC(=O)[C@H](CC(C)C)N(C)C(=O)C[C@@H](C)N(C)C(=O)[C@H]([C@@H](C)CC)N(C)C(=O)C2(CCCC2)NC(=O)[C@@H]2CCCN2C(=O)[C@H](CCc2ccc(C(F)(F)F)c(Cl)c2)NC(=O)CN(C)C(=O)[C@H](Cc2ccc(C)cc2)N(C)C(=O)CN(C)C(=O)CN(C)C1=O` [Compound 1792] (cyclo([Ac5c][NMeI][NMedβ3hAla][NMeL]I[Sar][Sar][NMePhe(4-Me)][Sar][hPhe(3-Cl-4-CF3)]P)): the IC50 is at most 20 nM.
With `CC(C)C[C@H]1C(=O)N[C@@H](CO)C(=O)N(C)CC(=O)N(C)CC(=O)N(C)[C@@H](CC2CCCCC2)C(=O)N(C)CC(=O)N[C@@H](CCc2ccc(C(F)(F)F)c(Cl)c2)C(=O)N2CCC[C@H]2C(=O)NC2(CCCC2)C(=O)N(C)[C@@H](C2CCCCC2)C(=O)N(C)[C@H](C(=O)N2CCCCC2)CC(=O)N1C` [Compound 1799] ([NMeL]S[Sar][Sar][NMeCha][Sar][hPhe(3-Cl-4-CF3)]P[Ac5c][NMeChg][NMeD]-Piperidide; lactam N-11), the IC50 is above 500 nM.
In the case of `CC(C)C[C@H]1C(=O)N[C@@H](C)C(=O)N(C)CC(=O)N(C)CC(=O)N(C)[C@@H](CC2CCCCC2)C(=O)N(C)CC(=O)N[C@@H](CCc2ccc(C(F)(F)F)c(Cl)c2)C(=O)N2CCC[C@H]2C(=O)NC2(CCCC2)C(=O)N(C)[C@@H](C2CCCCC2)C(=O)N(C)[C@H](C(=O)N2CCCCC2)CC(=O)N1C` [Compound 1802] ([NMeL]A[Sar][Sar][NMeCha][Sar][hPhe(3-Cl-4-CF3)]P[Ac5c][NMeChg][NMeD]-Piperidide; lactam N-11), the IC50 is above 500 nM.
On to `CC[C@H](C)[C@@H]1NC(=O)[C@H](C)N(C)C(=O)C[C@@H](C(=O)N2CCCCC2)N(C)C(=O)[C@H](C(C)C)N(C)C(=O)C2(CCCC2)NC(=O)[C@@H]2CCCN2C(=O)[C@H](CCc2ccc(C(F)(F)F)c(Cl)c2)NC(=O)[C@@H](C)N(C)C(=O)[C@H](Cc2ccccc2)N(C)C(=O)[C@@H]2CCCN2C(=O)CN(C)C1=O` [Compound 1806] ([NMeA]I[Sar]P[NMeF][dNMeA][hPhe(3-Cl-4-CF3)]P[Ac5c][NMeV][NMeD]-Piperidide; lactam N-11), for which the IC50 is above 500 nM.
Take `CC[C@H](C)[C@@H]1NC(=O)[C@H](C)N(C)C(=O)C[C@@H](C)N(C)C(=O)[C@H](C2CCCCC2)N(C)C(=O)C2(CCCC2)NC(=O)[C@@H]2CCCN2C(=O)[C@H](CCc2ccc(C(F)(F)F)c(Cl)c2)NC(=O)CN(C)C(=O)[C@H](CC2CCCCC2)N(C)C(=O)CN(C)C(=O)CN(C)C1=O` [Compound 1808] (cyclo([Ac5c][NMeChg][NMedβ3hAla][NMeA]I[Sar][Sar][NMeCha][Sar][hPhe(3-Cl-4-CF3)]P)): the IC50 was above 500 nM.
With `CC[C@H](C)[C@@H]1NC(=O)[C@H](C)N(C)C(=O)C[C@@H](C(=O)N2CCCC2)N(C)C(=O)[C@H](C2CCCCC2)N(C)C(=O)C2(CCCC2)NC(=O)[C@H](Cc2cccnc2)N(C)C(=O)[C@H](CCc2ccc(C(F)(F)F)c(Cl)c2)NC(=O)CN(C)C(=O)[C@H](CC2CCCCC2)N(C)C(=O)[C@@H]2CCN2C(=O)CN(C)C1=O` [Compound 1810] ([NMeA]I[Sar][Aze][NMeCha][Sar][hPhe(3-Cl-4-CF3)][NMe3Pal][Ac5c][NMeChg][NMeD]-Pyrrolidide; lactam N-11), the IC50 is above 500 nM.
Regarding `CC[C@H](C)[C@@H]1NC(=O)[C@H](CC(C)C)N(C)C(=O)C[C@@H](C)N(C)C(=O)[C@H](C2CCCCC2)N(C)C(=O)C2(CCCC2)NC(=O)[C@@H]2CCCN2C(=O)[C@H](CCc2ccc(C(F)(F)F)c(Cl)c2)NC(=O)CN(C)C(=O)[C@H](CC2CCCCC2)N(C)C(=O)[C@@H]2CCN2C(=O)[C@H](C)N(C)C1=O` [Compound 1813] (cyclo([Ac5c][NMeChg][NMedβ3hAla][NMeL]I[NMeA][Aze][NMeCha][Sar][hPhe(3-Cl-4-CF3)]P)), the IC50 was above 500 nM.
As to `CCCC[C@H]1C(=O)N(C)[C@H](C(=O)N2CCCCC2)CC(=O)N(C)[C@@H](CC(C)C)C(=O)N[C@@H]([C@@H](C)CC)C(=O)N(C)CC(=O)N(C)CC(=O)N(C)[C@@H](CC2CCCCC2)C(=O)N(C)CC(=O)N[C@@H](CCc2ccc(C(F)(F)F)c(Cl)c2)C(=O)N2CCC[C@H]2C(=O)NC2(CCCC2)C(=O)N1C` [Compound 1815] ([NMeL]I[Sar][Sar][NMeCha][Sar][hPhe(3-Cl-4-CF3)]P[Ac5c][NMeNle][NMeD]-Piperidide; lactam N-11), the IC50 is above 500 nM.
Regarding `CC[C@H](C)[C@@H]1NC(=O)[C@H](CC(C)C)N(C)C(=O)C[C@@H](C(=O)N2CCCC2)N(C)C(=O)[C@H](C2CCCC2)N(C)C(=O)C2(CCCC2)NC(=O)[C@@H]2CCCN2C(=O)[C@H](CCc2ccc(C(F)(F)F)c(Cl)c2)NC(=O)CN(C)C(=O)[C@H](CC2CCCCC2)N(C)C(=O)CN(C)C(=O)CN(C)C1=O` [Compound 1818] ([NMeL]I[Sar][Sar][NMeCha][Sar][hPhe(3-Cl-4-CF3)]P[Ac5c][NMeGly(cPent)][NMeD]-Pyrrolidide; lactam N-11), the IC50 is at most 20 nM.
